Data reported in PubChem BioAssay (NCI).
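Where inhibition never reached the appropriate level, the endpoint shown equals the highest concentration tested. Otherwise, values were interpolated linearly from a five-concentration, 48-hour dose response in 96-well plates. The concentration for full growth arrest is given as TGI.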

How the values were obtained:
Assay in all cases: DTP human tumour cell line panel, 48 h
786-0 renal = system: 786-0 renal
A498 renal = system: A498 renal
A549 NSCLC = system: A549 NSCLC
BT-549 breast = system: BT-549 breast
CAKI-1 renal = system: CAKI-1 renal
COLO 205 colon = system: COLO 205 colon
DU-145 prostate = system: DU-145 prostate
EKVX NSCLC = system: EKVX NSCLC
HCC-2998 colon = system: HCC-2998 colon
HCT-116 colon = system: HCT-116 colon
HL-60(TB) leukemia = system: HL-60(TB) leukemia
HOP-62 NSCLC = system: HOP-62 NSCLC
HOP-92 NSCLC = system: HOP-92 NSCLC
HS 578T breast = system: HS 578T breast
HT29 colon = system: HT29 colon
IGROV1 ovarian = system: IGROV1 ovarian
KM12 colon = system: KM12 colon
LOX IMVI melanoma = system: LOX IMVI melanoma
M14 melanoma = system: M14 melanoma
MALME-3M melanoma = system: MALME-3M melanoma
MCF7 breast = system: MCF7 breast
MDA-MB-231 breast = system: MDA-MB-231 breast
MDA-MB-435 = system: MDA-MB-435
MDA-N = system: MDA-N
MOLT-4 leukemia = system: MOLT-4 leukemia
NCI-H226 lung = system: NCI-H226 lung
NCI-H23 lung = system: NCI-H23 lung
NCI-H460 lung = system: NCI-H460 lung
NCI-H522 lung = system: NCI-H522 lung
NCI/ADR-RES ovarian = system: NCI/ADR-RES ovarian
OVCAR-3 ovarian = system: OVCAR-3 ovarian
OVCAR-5 ovarian = system: OVCAR-5 ovarian
OVCAR-8 ovarian = system: OVCAR-8 ovarian
PC-3 prostate = system: PC-3 prostate
RPMI-8226 leukemia = system: RPMI-8226 leukemia
RXF 393 renal = system: RXF 393 renal
SF-268 CNS = system: SF-268 CNS
SF-295 CNS = system: SF-295 CNS
SF-539 CNS = system: SF-539 CNS
SK-MEL-2 melanoma = system: SK-MEL-2 melanoma
SK-MEL-28 melanoma = system: SK-MEL-28 melanoma
SK-MEL-5 melanoma = system: SK-MEL-5 melanoma
SK-OV-3 ovarian = system: SK-OV-3 ovarian
SN12C renal = system: SN12C renal
SNB-19 CNS = system: SNB-19 CNS
SNB-75 CNS = system: SNB-75 CNS
SR leukemia = system: SR leukemia
SW-620 colon = system: SW-620 colon
T-47D breast = system: T-47D breast
TK-10 renal = system: TK-10 renal
U251 CNS = system: U251 CNS
UACC-257 melanoma = system: UACC-257 melanoma
UO-31 renal = system: UO-31 renal
ACHN renal = system: ACHN renal
CCRF-CEM leukemia = system: CCRF-CEM leukemia
HCT-15 colon = system: HCT-15 colon
K-562 leukemia = system: K-562 leukemia
UACC-62 melanoma = system: UACC-62 melanoma
OVCAR-4 ovarian = system: OVCAR-4 ovarian

`CN(C)CCNc1ccc2c(=O)n(CCN(C)C)c(=O)n3c4ccccc4c(=O)c1c23` gave a TGI (786-0 renal) of 1.35 µM, a TGI (A498 renal) of 0.554 µM and a TGI (A549 NSCLC) greater than 40.3 µM. The TGI (BT-549 breast) was 5.7 µM, the TGI (CAKI-1 renal) was 2.05 µM and the TGI (COLO 205 colon) was 0.671 µM. The TGI (DU-145 prostate) was 0.179 µM, the TGI (EKVX NSCLC) was 2.56 µM and the TGI (HCC-2998 colon) was 0.473 µM. It also gave a TGI (HCT-116 colon) of 0.615 µM, a TGI (HL-60(TB) leukemia) of 0.286 µM and a TGI (HOP-62 NSCLC) of 0.265 µM. For the same compound, the TGI (HOP-92 NSCLC) was 0.462 µM, the TGI (HS 578T breast) was 3.65 µM and the TGI (HT29 colon) was 1.68 µM. For the same compound, the TGI (IGROV1 ovarian) was 0.982 µM, the TGI (KM12 colon) was 1.14 µM and the TGI (LOX IMVI melanoma) was 1.48 µM. It also gave a TGI (M14 melanoma) of 1.81 µM, a TGI (MALME-3M melanoma) of 1.93 µM and a TGI (MCF7 breast) of 1.78 µM. The TGI (MDA-MB-231 breast) was 0.682 µM, the TGI (MDA-MB-435) was 0.537 µM and the TGI (MDA-N) was 0.71 µM. For the same compound, the TGI (MOLT-4 leukemia) was less than 0.0201 µM, the TGI (NCI-H226 lung) was 1.58 µM and the TGI (NCI-H23 lung) was 0.565 µM. For the same compound, the TGI (NCI-H460 lung) was 0.364 µM, the TGI (NCI-H522 lung) was 0.58 µM and the TGI (NCI/ADR-RES ovarian) was 5.5 µM. The TGI (OVCAR-3 ovarian) was 2.81 µM, the TGI (OVCAR-5 ovarian) was 5.03 µM and the TGI (OVCAR-8 ovarian) was 8.78 µM. It also gave a TGI (PC-3 prostate) of 7.09 µM, a TGI (RPMI-8226 leukemia) of 0.0616 µM and a TGI (RXF 393 renal) of 0.688 µM. The TGI (SF-268 CNS) was 0.482 µM, the TGI (SF-295 CNS) was 0.516 µM and the TGI (SF-539 CNS) was 0.272 µM. It also gave a TGI (SK-MEL-2 melanoma) of 1.7 µM, a TGI (SK-MEL-28 melanoma) of 5.26 µM and a TGI (SK-MEL-5 melanoma) of 0.163 µM. For the same compound, the TGI (SK-OV-3 ovarian) was 6.2 µM, the TGI (SN12C renal) was 0.294 µM and the TGI (SNB-19 CNS) was 7.12 µM. The TGI (SNB-75 CNS) was 0.403 µM, the TGI (SR leukemia) was 0.0298 µM and the TGI (SW-620 colon) was 3.98 µM. The TGI (T-47D breast) was 3.89 µM, the TGI (TK-10 renal) was 4.31 µM and the TGI (U251 CNS) was 3.63 µM. The TGI (UACC-257 melanoma) was 1.62 µM and the TGI (UO-31 renal) was 1.8 µM.
In the case of `COC1CC(C)(N)C(O)C(C)O1` (configuration not stated), the TGI (786-0 renal) is reported as greater than 100 µM, the TGI (A498 renal) is reported as greater than 100 µM and the TGI (A549 NSCLC) is reported as greater than 100 µM. It also gave a TGI (ACHN renal) greater than 100 µM, a TGI (BT-549 breast) greater than 100 µM and a TGI (CAKI-1 renal) greater than 100 µM. The TGI (CCRF-CEM leukemia) was greater than 100 µM, the TGI (COLO 205 colon) was greater than 100 µM and the TGI (DU-145 prostate) was greater than 100 µM. The TGI (EKVX NSCLC) was greater than 100 µM, the TGI (HCC-2998 colon) was greater than 100 µM and the TGI (HCT-116 colon) was greater than 100 µM. The TGI (HCT-15 colon) was greater than 100 µM, the TGI (HL-60(TB) leukemia) was greater than 100 µM and the TGI (HOP-62 NSCLC) was greater than 100 µM. For the same compound, the TGI (HOP-92 NSCLC) was greater than 100 µM, the TGI (HS 578T breast) was greater than 100 µM and the TGI (HT29 colon) was greater than 100 µM. The TGI (IGROV1 ovarian) was greater than 100 µM, the TGI (K-562 leukemia) was greater than 100 µM and the TGI (KM12 colon) was greater than 100 µM. The TGI (LOX IMVI melanoma) was greater than 100 µM, the TGI (M14 melanoma) was greater than 100 µM and the TGI (MALME-3M melanoma) was greater than 100 µM. It also gave a TGI (MCF7 breast) greater than 100 µM, a TGI (MDA-MB-231 breast) greater than 100 µM and a TGI (MDA-MB-435) greater than 100 µM. The TGI (MDA-N) was greater than 100 µM, the TGI (MOLT-4 leukemia) was greater than 100 µM and the TGI (NCI-H226 lung) was greater than 100 µM. The TGI (NCI-H23 lung) was greater than 100 µM, the TGI (NCI-H460 lung) was greater than 100 µM and the TGI (NCI-H522 lung) was greater than 100 µM. It also gave a TGI (NCI/ADR-RES ovarian) greater than 100 µM, a TGI (OVCAR-3 ovarian) greater than 100 µM and a TGI (OVCAR-8 ovarian) greater than 100 µM. It also gave a TGI (PC-3 prostate) greater than 100 µM, a TGI (RPMI-8226 leukemia) greater than 100 µM and a TGI (RXF 393 renal) greater than 100 µM. It also gave a TGI (SF-268 CNS) greater than 100 µM, a TGI (SF-295 CNS) greater than 100 µM and a TGI (SF-539 CNS) greater than 100 µM. The TGI (SK-MEL-2 melanoma) was greater than 100 µM, the TGI (SK-MEL-28 melanoma) was greater than 100 µM and the TGI (SK-MEL-5 melanoma) was greater than 100 µM. The TGI (SK-OV-3 ovarian) was greater than 100 µM, the TGI (SN12C renal) was greater than 100 µM and the TGI (SNB-19 CNS) was greater than 100 µM. The TGI (SNB-75 CNS) was greater than 100 µM, the TGI (SR leukemia) was greater than 100 µM and the TGI (SW-620 colon) was greater than 100 µM. For the same compound, the TGI (T-47D breast) was greater than 100 µM, the TGI (TK-10 renal) was greater than 100 µM and the TGI (U251 CNS) was greater than 100 µM. For the same compound, the TGI (UACC-257 melanoma) was greater than 100 µM, the TGI (UACC-62 melanoma) was greater than 100 µM and the TGI (UO-31 renal) was greater than 100 µM.
In the case of `Cc1cc(C)c2c(=O)n(CN3CCC(C#N)(c4ccccc4)CC3)sc2n1`, the TGI (786-0 renal) is reported as 52.6 µM, the TGI (A498 renal) is reported as greater than 100 µM and the TGI (A549 NSCLC) is reported as greater than 100 µM. The TGI (ACHN renal) was 44.1 µM, the TGI (BT-549 breast) was greater than 100 µM and the TGI (CAKI-1 renal) was greater than 100 µM. For the same compound, the TGI (CCRF-CEM leukemia) was greater than 100 µM, the TGI (COLO 205 colon) was greater than 100 µM and the TGI (DU-145 prostate) was greater than 100 µM. It also gave a TGI (EKVX NSCLC) greater than 100 µM, a TGI (HCT-116 colon) greater than 100 µM and a TGI (HCT-15 colon) greater than 100 µM. For the same compound, the TGI (HL-60(TB) leukemia) was 49.7 µM, the TGI (HOP-62 NSCLC) was greater than 100 µM and the TGI (HOP-92 NSCLC) was greater than 100 µM. For the same compound, the TGI (HS 578T breast) was greater than 100 µM, the TGI (HT29 colon) was greater than 100 µM and the TGI (IGROV1 ovarian) was greater than 100 µM. The TGI (K-562 leukemia) was greater than 100 µM, the TGI (KM12 colon) was greater than 100 µM and the TGI (LOX IMVI melanoma) was 69.9 µM. For the same compound, the TGI (M14 melanoma) was greater than 100 µM, the TGI (MALME-3M melanoma) was 46.5 µM and the TGI (MCF7 breast) was greater than 100 µM. It also gave a TGI (MDA-MB-231 breast) greater than 100 µM, a TGI (MDA-MB-435) of 65.5 µM and a TGI (MDA-N) of 80.3 µM. The TGI (MOLT-4 leukemia) was greater than 100 µM, the TGI (NCI-H226 lung) was greater than 100 µM and the TGI (NCI-H23 lung) was greater than 100 µM. It also gave a TGI (NCI-H460 lung) greater than 100 µM, a TGI (NCI-H522 lung) of 31.3 µM and a TGI (NCI/ADR-RES ovarian) greater than 100 µM. It also gave a TGI (OVCAR-3 ovarian) greater than 100 µM, a TGI (OVCAR-4 ovarian) of 88.8 µM and a TGI (OVCAR-5 ovarian) of 90.9 µM. For the same compound, the TGI (OVCAR-8 ovarian) was 81.5 µM, the TGI (PC-3 prostate) was greater than 100 µM and the TGI (RXF 393 renal) was 48 µM. It also gave a TGI (SF-268 CNS) greater than 100 µM, a TGI (SF-295 CNS) greater than 100 µM and a TGI (SF-539 CNS) of 98.3 µM. For the same compound, the TGI (SK-MEL-2 melanoma) was greater than 100 µM, the TGI (SK-MEL-28 melanoma) was greater than 100 µM and the TGI (SK-MEL-5 melanoma) was greater than 100 µM. The TGI (SK-OV-3 ovarian) was greater than 100 µM, the TGI (SN12C renal) was greater than 100 µM and the TGI (SNB-19 CNS) was greater than 100 µM. It also gave a TGI (SNB-75 CNS) of 76.1 µM, a TGI (SR leukemia) greater than 100 µM and a TGI (SW-620 colon) of 67.7 µM. The TGI (T-47D breast) was greater than 100 µM, the TGI (TK-10 renal) was 63.6 µM and the TGI (U251 CNS) was greater than 100 µM. For the same compound, the TGI (UACC-257 melanoma) was 44.6 µM, the TGI (UACC-62 melanoma) was greater than 100 µM and the TGI (UO-31 renal) was 34.1 µM.
